Laboratory results: patent publication US20210177828A1, “TAM FAMILY KINASE /AND CSF1R KINASE INHIBITOR AND USE THEREOF” (Nanjing Transthera Biosciences Co., Ltd., priority 2018, published 2021)

Columns and labels:
Axl (h) = target: T1, Axl (h) (Homo sapiens, UniProt P30530); assay: Enzymatic activity assay, Axl (h), [γ-33P]-ATP filter assay; format: biochemical; conditions: 10 μM ATP, 40 min room temperature; read-out: Inhibitory activity IC50 Axl(h)
T1 sequence (P30530 26-894): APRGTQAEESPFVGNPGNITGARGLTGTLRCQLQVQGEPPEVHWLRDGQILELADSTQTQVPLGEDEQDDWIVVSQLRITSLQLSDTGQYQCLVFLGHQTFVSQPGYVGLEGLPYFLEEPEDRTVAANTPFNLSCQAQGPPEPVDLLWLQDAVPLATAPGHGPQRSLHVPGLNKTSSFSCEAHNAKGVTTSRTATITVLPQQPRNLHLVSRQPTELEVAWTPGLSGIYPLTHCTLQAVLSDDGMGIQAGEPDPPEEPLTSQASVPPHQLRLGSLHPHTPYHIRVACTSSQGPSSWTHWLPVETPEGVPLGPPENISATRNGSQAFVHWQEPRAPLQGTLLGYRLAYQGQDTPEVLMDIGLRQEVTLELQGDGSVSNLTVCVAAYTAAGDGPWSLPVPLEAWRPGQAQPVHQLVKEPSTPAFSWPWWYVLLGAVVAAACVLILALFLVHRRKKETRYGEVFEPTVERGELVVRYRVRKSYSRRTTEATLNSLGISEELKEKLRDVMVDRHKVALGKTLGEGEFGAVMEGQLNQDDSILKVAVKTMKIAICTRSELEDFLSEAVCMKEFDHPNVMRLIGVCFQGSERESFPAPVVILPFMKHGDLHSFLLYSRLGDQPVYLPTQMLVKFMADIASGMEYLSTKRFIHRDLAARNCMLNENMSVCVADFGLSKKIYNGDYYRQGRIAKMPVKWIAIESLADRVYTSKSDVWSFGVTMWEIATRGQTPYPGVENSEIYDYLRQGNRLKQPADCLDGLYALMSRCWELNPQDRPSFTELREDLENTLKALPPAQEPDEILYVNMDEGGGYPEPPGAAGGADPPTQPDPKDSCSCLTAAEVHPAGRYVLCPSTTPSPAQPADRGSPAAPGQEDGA
Protocol: (§1) Compounds were each dissolved in 100% DMSO to prepare stock solutions with a maximum concentration of 500 μM.
(§2) Compound working solutions (50×) were prepared by diluting a compound stock solution to a final concentration of 500, 150, 50, 15, 5, 1.5, 0.5, 0.15 and 0.05 μM.
An enzyme solution with a final concentration of 1.7 nM was prepared by dissolving Axl (h) enzyme in a mixture of 8 mM MOPS (pH 7.0), 0.2 mM EDTA and 250 μM KKSRGDYMTMQIG. A Mg/ATP mixture of 10 mM magnesium acetate and 10 μM [γ-^33P]-ATP was used to activate the enzymatic reaction.
(§3) A compound working solution was added to a 384-well plate, with final concentrations of 10,000, 3,000, 1,000, 300, 100, 30, 10, 3 and 1 nM, and then different enzymatic reaction solutions prepared according to the above conditions were added. The reaction solutions were incubated at room temperature for 40 min, and then 0.5% phosphoric acid solutions were added to terminate the reaction. 10 μL of the reaction solution was added dropwise to P30 filter paper, washed 4 times with a 0.425% phosphoric acid solution and once with methanol, and then placed in a scintillation counter for detection. Gray analysis was performed on the results with Image J software, and IC50 values were calculated with GraphPad 5.0 software.

Mer (h) = target: T2, Mer (h) (Homo sapiens, UniProt Q12866); assay: Enzymatic activity assay, Mer (h), [γ-33P]-ATP filter assay; format: biochemical; conditions: 10 μM ATP, 40 min room temperature; read-out: Inhibitory activity IC50 Mer(h)
T2 sequence (Q12866 21-999): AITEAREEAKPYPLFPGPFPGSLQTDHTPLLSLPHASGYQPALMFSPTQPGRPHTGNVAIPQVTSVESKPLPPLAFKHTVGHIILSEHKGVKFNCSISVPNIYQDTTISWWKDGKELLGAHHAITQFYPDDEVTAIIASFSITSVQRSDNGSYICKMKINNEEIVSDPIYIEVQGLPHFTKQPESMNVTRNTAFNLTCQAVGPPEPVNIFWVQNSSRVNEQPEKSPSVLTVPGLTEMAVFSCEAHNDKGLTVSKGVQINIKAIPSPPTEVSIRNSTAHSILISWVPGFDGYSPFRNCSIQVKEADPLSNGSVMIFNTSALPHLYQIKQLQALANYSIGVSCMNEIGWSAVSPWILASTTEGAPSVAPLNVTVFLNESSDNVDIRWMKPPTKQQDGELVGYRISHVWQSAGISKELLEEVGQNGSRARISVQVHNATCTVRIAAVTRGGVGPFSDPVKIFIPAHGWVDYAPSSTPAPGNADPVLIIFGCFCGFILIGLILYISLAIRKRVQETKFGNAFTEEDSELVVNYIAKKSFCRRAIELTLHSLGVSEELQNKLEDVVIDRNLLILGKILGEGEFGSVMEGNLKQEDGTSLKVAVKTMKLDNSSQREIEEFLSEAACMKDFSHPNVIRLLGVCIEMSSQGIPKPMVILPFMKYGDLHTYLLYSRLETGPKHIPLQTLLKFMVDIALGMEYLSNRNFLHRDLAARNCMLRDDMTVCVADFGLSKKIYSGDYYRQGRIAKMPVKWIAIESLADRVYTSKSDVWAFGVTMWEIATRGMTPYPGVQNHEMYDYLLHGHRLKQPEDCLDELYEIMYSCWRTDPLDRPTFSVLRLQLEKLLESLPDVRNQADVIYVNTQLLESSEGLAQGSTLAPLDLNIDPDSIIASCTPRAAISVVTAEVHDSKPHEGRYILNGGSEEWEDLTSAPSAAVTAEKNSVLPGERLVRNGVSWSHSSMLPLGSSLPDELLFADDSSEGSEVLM
Protocol: as §1, §2
An enzyme solution with a final concentration of 3.1 nM was prepared by dissolving Mer (h) enzyme in a mixture of 8 mM MOPS (pH 7.0), 0.2 mM EDTA, 30 mM NaCl and 250 μM GGMEDIYFEFMGGKKK. A Mg/ATP mixture of 10 mM magnesium acetate and 10 μM [γ-^33P]-ATP was used to activate the enzymatic reaction.
as §3

| IC50 (Axl (h)) [nM] | IC50 (Mer (h)) [nM] | SMILES |
| --- | --- | --- |
| 20 | 50 | COc1cc2nccc(Oc3ccc(NC(=O)c4cn(CC5CCS(=O)(=O)CC5)cc(-c5ccc(C)cc5)c4=O)nc3)c2cc1OC [Compound 7, N-(5-((6,7-dimethoxyquinolin-4-yl)oxy)pyridin-2-yl)-1-((1,1-dioxotetrahydro-2H-thiopyran-4-yl)methyl)-4-oxo-5-(p-tolyl)-1,4-dihydropyridin-3-carboxamide] |
| 28 | 48 | Cc1ccc(-c2cn(C3CCOCC3)nc(C(=O)Nc3ccc(Oc4ccnc5cc6c(cc45)OCO6)cn3)c2=O)cc1 [Compound 29, N-(5-([1,3]dioxolo[4,5-g]quinolin-8-yloxy)pyridin-2-yl)-4-oxo-1-(tetrahydro-2H-pyran-4-yl)-5-(p-tolyl)-1,4-dihydropyridazin-3-carboxamide] |
| 9 | 34 | COc1cc2nccc(Oc3ccc(NC(=O)c4cn(CC5CCOCC5)cc(-c5ccc(C)cc5)c4=O)nn3)c2cc1OC [Compound 24, N-(6-((6,7-dimethoxyquinolin-4-yl)oxy)pyridazin-3-yl)-4-oxo-1-((tetrahydro-2H-pyran-4-yl)methyl)-5-(p-tolyl)-1,4-dihydropyridin-3-carboxamide] |
| 7 | < 1 | COc1cc2nccc(Oc3ccc(NC(=O)c4nn(CC5CCOCC5)cc(-c5ccc(C)cc5)c4=O)nc3)c2cc1OC [Compound 2, N-(5-((6,7-dimethoxyquinolin-4-yl)oxy)pyridin-2-yl)-4-oxo-1-((tetrahydro-2H-pyran-4-yl)methyl)-5-(p-tolyl)-1,4-dihydropyridazin-3-carboxamide] |
| 12 | 4 | COc1cc2nccc(Oc3ccc(NC(=O)c4cn(C5CCOCC5)cc(-c5ccc(C)cc5)c4=O)nc3)c2cc1OC [Compound 19, N-(5-((6,7-dimethoxyquinolin-4-yl)oxy)pyridin-2-yl)-4-oxo-1-(tetrahydro-2H-pyran-4-yl)-5-(p-tolyl)-1,4-dihydropyridin-3-carboxamide] |
| 20 | 8 | COc1cc2nccc(Oc3ccc(NC(=O)c4cc(CC5CCOCC5)cn(-c5ccc(C)cc5)c4=O)nc3)c2cc1OC [Compound 26, N-(5-((6,7-dimethoxyquinolin-4-yl)oxy)pyridin-2-yl)-oxo-5-((tetrahydro-2H-pyran-4-yl)methyl)-1-(p-tolyl)-1,2-dihydropyridin-3-carboxamide] |
| 4 | 14 | COc1cc2nccc(Oc3cnc(NC(=O)c4cn(C5CCOCC5)cc(-c5ccc(C)cc5)c4=O)nc3)c2cc1OC [Compound 20, N-(5-((6,7-dimethoxyquinolin-4-yl)oxy)pyrimidin-2-yl)-4-oxo-1-(tetrahydro-2H-pyran-4-yl)-5-(p-tolyl)-1,4-dihydropyridin-3-carboxamide] |
